We go through four compounds from publication PMC8037336, “Metabolite Profiling and Characterization of LW6, a Novel HIF-1α Inhibitor, as an Antitumor Drug Candidate in Mice” (Molecules, 2021).

Several values for one entry are separate records, joined by “and”; a condition that tells them apart may be missing. Equal entries are not always repeated.

A short description of the data set: Metabolite profiling and semi-quantitation (peak area-time AUC) of LW6 and its metabolites in mouse plasma after a single i.v. or oral dose of LW6. The class given is in vivo, male ICR mice. Conditions: for Relative % of Parent AUC0→t (i.v.): AUC0→t relative to AUC0→t of parent after i.v. administration; for Relative % of Total Metabolite AUC0→t: relative to sum of AUC0→t of all detected metabolites; for Relative AUC of metabolite versus parent AUC (i.v.): versus AUC0→t of LW6 administered intravenously; for Relative % of Parent AUC0→t (p.o.): AUC0→t relative to AUC0→t of parent after i.v. administration (5 mg/kg); for Average AUC0→t (Peak Intensity, Cps) / Average AUC0→t (Peak inTensity, cps): mouse plasma, n = 3, 0-24 h, LC-MS/MS peak intensity-time curve; for Average AUC0→t (Peak Intensity, Cps): LW6 5 mg/kg i.v.; for Average AUC0→t (Peak inTensity, cps): LW6 5 mg/kg p.o.; for Detection of metabolite in mouse plasma: LW6 5 mg/kg i.v. or p.o., pMRM-IDA-EPI, S/N > 3. On the procedure: To determine the in vivo metabolism of LW6, male ICR mice were administered a single intravenous (i.v., 5 mg/kg) or oral dose (p.o., 5 mg/kg) of LW6. Serial blood samples (Section 4.2) were collected and metabolite identification was performed using a pMRM-IDA-EPI scan method in negative ion mode on a QTRAP.
Animal experiments were approved by the Institutional Animal Care and Use Committee of the Korea Research Institute of Bioscience and Biotechnology (Chungbuk, Korea; KRIBB-AEC-15005, 9 January 2015) and performed in compliance with the National Institutes of Health Guidelines for the care and use of laboratory animals and Korean national laws for ethical conduct in the care and use of animals and the rules of Good Laboratory Practice. Six specific pathogen-free (SPF) male ICR mice (8 weeks, 31.5–40.1 g) were purchased from Koatech Co. (Pyeongtaek, Kyonggi, Korea) and maintained in an SPF environment at 22 ± 2 °C with a 12 h light/dark cycle and relative humidity of 50 ± 10%. Food (Teklad Global rodent diet 2018S, ENVIGO, Indianapolis, IN, USA) and water were provided ad libitum, unless noted otherwise. Animals were acclimated to the testing facility for 1 week before being used in the study. The animal group for oral dosing was fasted overnight before the study and fed again 4 h after dosing. Mice were administered a single dose of the test substance intravenously via tail vein injection (n = 3, 5 mg/kg) or orally by disposable syringe with an oral zonde (n = 3, 5 mg/kg). Dosing solutions were prepared in dimethylacetamide/Cremophor EL/20% v/v (2-hydroxypropyl)-β-cyclodextrin in de-ionized water (1/1/3 v/v/v; i.v. or p.o. for LW6) and administered at a dose volume of 5 mL/kg for both i.v. and p.o. Peng et al. method was used for serial blood sampling in mice. Briefly, blood samples (~50 µL each) were collected via the saphenous vein of free alive mice at the time points including 0, 0.25, 0.5, 0.75, 1, 2, 4, 6, 8, and 24 h after oral administration or 0, 0.083, 0.167, 0.25, 0.5, 1, 2, 4, 6, 8, and 24 h after intravenous administration. These samples were collected into Microvette® capillary tubes at predetermined time points. The blood samples were centrifuged under refrigeration at 12,000× g for 3 min and then stored frozen at −20 °C until analysis.
Plasma samples were prepared for analysis by the protein precipitation method. A simple protein precipitation is to remove proteins in plasma samples with organic solvents. Briefly, 15 µL of each plasma sample was transferred to a PCR tube (Axygen, Union City, CA, USA). Four volumes of acetonitrile containing the analytical internal standard, 4-methylumbelliferone, were added, and the resulting mixture was vortexed for 10 min on a multi-tube vortexer (VWR International, Radnor, PA, USA). The samples were sonicated for 30 min at room temperature. The tubes were centrifuged at 12,000× g for 10 min, and the supernatant was analyzed for the test substance. Sample analysis was performed with a 3200 Q TRAP LC/MS/MS system (Applied Biosystems, Foster City, CA, USA) in negative MRM mode. The analytical methods are described in the following sections.
The LC-MS/MS system consisted of an Agilent 1100 series HPLC system (Agilent Technologies, Santa Clara, CA, USA) equipped with an API 3200 QTRAP hybrid triple quadrupole-linear ion trap mass spectrometer with a Turbo V^TM ion spray. All samples were analyzed on an Acquisition mode and data were processed using Analyst® software (version 1.4.2, Applied Biosystems, Foster City, CA, USA). The sample injection volume was 10 µL, and separation was performed using an Atlantis dC18 column (50 × 2.1 mm i.d., 3 µm, Waters, Milford, MA, USA) with a SecurityGuard^TM C18 guard column (2.0 × 4.0 mm i.d., Phenomenex, Torrance, CA, USA) maintained at room temperature. […]

On to `O=C(O)COc1ccc(C23CC4CC(CC(C4)C2)C3)cc1` [APA, 2-(4-((3r,5r,7r)-adamantan-1-yl)phenoxy)acetic acid], for which the “Average AUC0→t (Peak Intensity, Cps)” value was 19,697,150 cps and the “Average AUC0→t (Peak inTensity, cps)” value is listed as 17,688,080 cps. Moreover, under “after LW6 5 mg/kg i.v.”, the “Relative % of Parent AUC0→t (i.v.)” value was determined as 1877.92%; the “Relative % of Total Metabolite AUC0→t” value is 92.1% and 92%; the “Relative AUC of metabolite versus parent AUC (i.v.)” value was “approximately 19 fold”. In addition, where the note is “after LW6 5 mg/kg i.v., listed as APA (M7)”, the “Relative % of Total Metabolite AUC0→t” value is reported as 92.09%. Under “after LW6 5 mg/kg p.o.”, the “Relative % of Parent AUC0→t (p.o.)” value amounted to 1686.37%; the “Relative % of Total Metabolite AUC0→t” value was 93.3% and 93%; the “Relative AUC of metabolite versus parent AUC (i.v.)” value is approximately 17 fold. The “Relative % of Total Metabolite AUC0→t” value (after LW6 5 mg/kg p.o., listed as APA (M7)) worked out at 93.32%.
With `COC(=O)c1ccc(O)c(NC(=O)COc2ccc(C34CC5CC(CC(C5)C3)C4)cc2)c1` [LW6], the “Average AUC0→t (Peak Intensity, Cps)” value is on record as 1,048,883 cps and the “Average AUC0→t (Peak inTensity, cps)” value was 28,735 cps. The “Relative % of Parent AUC0→t (i.v.)” value (after LW6 5 mg/kg i.v., 5 mg/kg) was 100%. For the same compound, the “Relative % of Parent AUC0→t (p.o.)” value (after LW6 5 mg/kg p.o., 5 mg/kg) is 2.7% and 2.74%.
For the compound `O=C(COc1ccc(C23CC4CC(CC(C4)C2)C3)cc1)Nc1cc(C(=O)O)ccc1O` [M9], the “Detection of metabolite in mouse plasma” value is reported as “only detected in plasma samples obtained from intravenous dosing” and the “Average AUC0→t (Peak Intensity, Cps)” value is listed as 7672 cps. Further, under “after LW6 5 mg/kg i.v.”, the “Relative % of Parent AUC0→t (i.v.)” value was 0.73% and the “Relative % of Total Metabolite AUC0→t” value is recorded as 0.04%.
`Oc1ccc(C23CC4CC(CC(C4)C2)C3)cc1` [M12]: the “Detection of metabolite in mouse plasma” value is on record as “only detected in plasma samples obtained from intravenous dosing” and the “Average AUC0→t (Peak Intensity, Cps)” value is 31,345 cps. Where the note is “after LW6 5 mg/kg i.v.”, the “Relative % of Parent AUC0→t (i.v.)” value was found to be 2.99% and the “Relative % of Total Metabolite AUC0→t” value was determined as 0.15%.
